Tested on: 171881-019-R-J1-PDC tumor spheroids, viability
Assay: Anticancer human tumor 171881-019-R-J1-PDC patient-derived invasive breast carcinoma cell line growth inhibition [GQUAD]
Conditions: spheroids with HUVEC and MSC; for IC50: curve of first compound; for viability, T/C: stronger effect = lower value
How it was run: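 Viability of tumor cells grown as complex spheroids with endothelial and stromal cells, exposed to drug combinations. Top concentration at or near clinical Cmax (else 10 microM), diluted in half-log increments.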

[1] = second compound 0.0316 µM, first compound 0.0316 µM
[2] = second compound 0.0316 µM, first compound 0.316 µM
[3] = second compound 0.1 µM, first compound 0.0316 µM
[4] = second compound 0.1 µM, first compound 0.316 µM
[5] = second compound 0.316 µM, first compound 0.0316 µM
[6] = second compound 0.316 µM, first compound 0.316 µM
[7] = second compound 1 µM, first compound 0.0316 µM
[8] = second compound 1 µM, first compound 0.316 µM
[9] = second compound 3.16 µM, first compound 0.0316 µM
[10] = second compound 3.16 µM, first compound 0.316 µM
[11] = second compound 10 µM, first compound 0.0316 µM
[12] = second compound 10 µM, first compound 0.316 µM
[13] = second compound 0.0316 µM, first compound 0.1 µM
[14] = second compound 0.0316 µM, first compound 1 µM
[15] = second compound 0.0316 µM, first compound 3.16 µM
[16] = second compound 0.0316 µM, first compound 10 µM
[17] = second compound 0.1 µM, first compound 0.1 µM
[18] = second compound 0.1 µM, first compound 1 µM
[19] = second compound 0.1 µM, first compound 3.16 µM
[20] = second compound 0.1 µM, first compound 10 µM
[21] = second compound 0.316 µM, first compound 0.1 µM
[22] = second compound 0.316 µM, first compound 1 µM
[23] = second compound 0.316 µM, first compound 3.16 µM
[24] = second compound 0.316 µM, first compound 10 µM
[25] = second compound 1 µM, first compound 0.1 µM
[26] = second compound 1 µM, first compound 1 µM
[27] = second compound 1 µM, first compound 3.16 µM
[28] = second compound 1 µM, first compound 10 µM
[29] = second compound 3.16 µM, first compound 0.1 µM
[30] = second compound 3.16 µM, first compound 1 µM
[31] = second compound 3.16 µM, first compound 3.16 µM
[32] = second compound 3.16 µM, first compound 10 µM
[33] = second compound 10 µM, first compound 0.1 µM
[34] = second compound 10 µM, first compound 1 µM
[35] = second compound 10 µM, first compound 3.16 µM
[36] = second compound 10 µM, first compound 10 µM
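For viability, T/C in this document: 100% = DMSO vehicle control viability.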

`CCc1c2c(nc3ccc(O)cc13)-c1cc3c(c(=O)n1C2)COC(=O)[C@]3(O)CC` + Cc1[nH]c2ccc(F)cc2c1-c1nc2c3cccnc3c3ncccc3c2[nH]1 gave an IC50 (second compound 0.0316 µM) of 2.72 nM, an IC50 (second compound 0.1 µM) of 2.74 nM and an IC50 (second compound 0.316 µM) of 2.61 nM. It also gave an IC50 (second compound 1 µM) of 2.24 nM, an IC50 (second compound 3.16 µM) of under 0.999 nM and an IC50 (second compound 10 µM) of under 0.999 nM. The viability, T/C (second compound 0.0316 µM, first compound 0.000999 µM) was 80.3%, the viability, T/C (second compound 0.0316 µM, first compound 0.00316 µM) was 42.4% and the viability, T/C (second compound 0.0316 µM, first compound 0.00999 µM) was 35.7%. It also gave a viability, T/C [1] of 33.1%, a viability, T/C (second compound 0.0316 µM, first compound 0.0999 µM) of 25.8% and a viability, T/C [2] of 23.3%. It also gave a viability, T/C (second compound 0.1 µM, first compound 0.000999 µM) of 78.6%, a viability, T/C (second compound 0.1 µM, first compound 0.00316 µM) of 43.2% and a viability, T/C (second compound 0.1 µM, first compound 0.00999 µM) of 35.6%. The viability, T/C [3] was 33.8%, the viability, T/C (second compound 0.1 µM, first compound 0.0999 µM) was 28.5% and the viability, T/C [4] was 22.6%. The viability, T/C (second compound 0.316 µM, first compound 0.000999 µM) was 74.4%, the viability, T/C (second compound 0.316 µM, first compound 0.00316 µM) was 42.9% and the viability, T/C (second compound 0.316 µM, first compound 0.00999 µM) was 34.8%. For the same compound, the viability, T/C [5] was 33.4%, the viability, T/C (second compound 0.316 µM, first compound 0.0999 µM) was 27% and the viability, T/C [6] was 23.4%. It also gave a viability, T/C (second compound 1 µM, first compound 0.000999 µM) of 66.6%, a viability, T/C (second compound 1 µM, first compound 0.00316 µM) of 39.5% and a viability, T/C (second compound 1 µM, first compound 0.00999 µM) of 34.4%. For the same compound, the viability, T/C [7] was 27.8%, the viability, T/C (second compound 1 µM, first compound 0.0999 µM) was 23.6% and the viability, T/C [8] was 18.7%. It also gave a viability, T/C (second compound 3.16 µM, first compound 0.000999 µM) of 19.9%, a viability, T/C (second compound 3.16 µM, first compound 0.00316 µM) of 14.7% and a viability, T/C (second compound 3.16 µM, first compound 0.00999 µM) of 14.6%. The viability, T/C [9] was 11%, the viability, T/C (second compound 3.16 µM, first compound 0.0999 µM) was 10.2% and the viability, T/C [10] was 7.94%. For the same compound, the viability, T/C (second compound 10 µM, first compound 0.000999 µM) was 32%, the viability, T/C (second compound 10 µM, first compound 0.00316 µM) was 33.6% and the viability, T/C (second compound 10 µM, first compound 0.00999 µM) was 25.1%. The viability, T/C [11] was 19.4%, the viability, T/C (second compound 10 µM, first compound 0.0999 µM) was 17% and the viability, T/C [12] was 12.5%.
Work on `CC1COCCN1c1cc(-c2ccnn2C)c2ccnc(-c3ccn[nH]3)c2n1` (stereo unspecified) + Cc1[nH]c2ccc(F)cc2c1-c1nc2c3cccnc3c3ncccc3c2[nH]1 yielded an IC50 (second compound 0.0316 µM) of 64.8 nM, an IC50 (second compound 0.1 µM) of 62.3 nM and an IC50 (second compound 0.316 µM) of 60.6 nM. For the same compound, the IC50 (second compound 1 µM) was 42.6 nM, the IC50 (second compound 3.16 µM) was under 31.6 nM and the IC50 (second compound 10 µM) was under 31.6 nM. The viability, T/C [1] was 80%, the viability, T/C [13] was 31.4% and the viability, T/C [2] was 14.5%. It also gave a viability, T/C [14] of 8.57%, a viability, T/C [15] of 5.08% and a viability, T/C [16] of 5.43%. For the same compound, the viability, T/C [3] was 71.2%, the viability, T/C [17] was 35.2% and the viability, T/C [4] was 15.3%. It also gave a viability, T/C [18] of 8.2%, a viability, T/C [19] of 5.64% and a viability, T/C [20] of 5.65%. It also gave a viability, T/C [5] of 74%, a viability, T/C [21] of 31% and a viability, T/C [6] of 16.2%. For the same compound, the viability, T/C [22] was 7.52%, the viability, T/C [23] was 5.84% and the viability, T/C [24] was 5.85%. It also gave a viability, T/C [7] of 59%, a viability, T/C [25] of 24.8% and a viability, T/C [8] of 14.6%. The viability, T/C [26] was 9.37%, the viability, T/C [27] was 6.91% and the viability, T/C [28] was 6.37%. For the same compound, the viability, T/C [9] was 16.6%, the viability, T/C [29] was 12.9% and the viability, T/C [10] was 10.5%. The viability, T/C [30] was 6.96%, the viability, T/C [31] was 5.31% and the viability, T/C [32] was 4.34%. It also gave a viability, T/C [11] of 18%, a viability, T/C [33] of 16.2% and a viability, T/C [12] of 11.8%. The viability, T/C [34] was 8.67%, the viability, T/C [35] was 5.67% and the viability, T/C [36] was 5.17%.
`CC1COCCN1c1cc(C2(O)CC3CCC(C2)O3)c2cnn(-c3ccn[nH]3)c2n1` (stereo unspecified) + Cc1cnc(CNC(=O)c2c(=O)c3ccc(N4CCCN(C)CC4)nc3n3c2sc2ccccc23)cn1 showed an IC50 (second compound 0.0316 µM) of under 31.6 nM, an IC50 (second compound 0.1 µM) of under 31.6 nM and an IC50 (second compound 0.316 µM) of under 31.6 nM. It also gave an IC50 (second compound 1 µM) of under 31.6 nM, an IC50 (second compound 3.16 µM) of under 31.6 nM and an IC50 (second compound 10 µM) of under 31.6 nM. For the same compound, the viability, T/C [1] was 33.7%, the viability, T/C [13] was 16.5% and the viability, T/C [2] was 9.78%. The viability, T/C [14] was 5.45%, the viability, T/C [15] was 4.11% and the viability, T/C [16] was 2.67%. It also gave a viability, T/C [3] of 33.8%, a viability, T/C [17] of 17.1% and a viability, T/C [4] of 9.54%. For the same compound, the viability, T/C [18] was 5.51%, the viability, T/C [19] was 4.25% and the viability, T/C [20] was 3.04%. It also gave a viability, T/C [5] of 34.8%, a viability, T/C [21] of 21.1% and a viability, T/C [6] of 10.6%. For the same compound, the viability, T/C [22] was 5.81%, the viability, T/C [23] was 4.2% and the viability, T/C [24] was 3.15%. For the same compound, the viability, T/C [7] was 35.5%, the viability, T/C [25] was 22.2% and the viability, T/C [8] was 13.5%. It also gave a viability, T/C [26] of 6.47%, a viability, T/C [27] of 4.91% and a viability, T/C [28] of 2.51%. It also gave a viability, T/C [9] of 44.8%, a viability, T/C [29] of 27.9% and a viability, T/C [10] of 16.4%. It also gave a viability, T/C [30] of 6.87%, a viability, T/C [31] of 4.24% and a viability, T/C [32] of 0.23%. For the same compound, the viability, T/C [11] was 43.3%, the viability, T/C [33] was 31.1% and the viability, T/C [12] was 15.4%. It also gave a viability, T/C [34] of 7.69%, a viability, T/C [35] of 3.95% and a viability, T/C [36] of 0.2%.
